Drawing on PubChem BioAssay AID815 (Emory University Molecular Libraries Screening Center, 2007), this text covers EC50 and CC50 for 29 compounds.

Usually EC50 stands for the concentration needed to bring the measured effect to its halfway point. The term CC50 denotes the concentration that lowers cell viability or growth by half. Read a high CC50 as lower toxicity to the cells.

The assay has as its system Vero cells, measles virus yield reduction, TCID50, 36 h. The experiment in a line: antiviral potency against measles with cytotoxicity – cell-based, EC50 and CC50, dose response (AID 815). Conditions: for CC50: measured here: cytotoxicity, viable cells.

Inconclusive results are not listed. The source made the active and inactive calls.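 The calls were made as follows: active = compounds whose half-maximal effective concentration EC50 against measles virus is under 10 µM; inactive = the rest, inconclusive results apart.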

On to `Cc1nc(C(F)(F)F)ccc1C(=O)Nc1ccc(S(=O)(=O)N2CCCC2)cc1`, for which the EC50 is > 75 µM (inactive) and the CC50 is > 300 µM.

As for `O=C(Nc1ccc(S(=O)(=O)N2CCCC2)cc1)c1ccc(F)cc1`, the EC50 is > 75 µM (inactive) and the CC50 was > 300 µM.

For the compound `O=C(Nc1ccc(S(=O)(=O)N2CCCC2)cc1)c1cccc(C(F)(F)F)c1`, the EC50 is > 75 µM (inactive) and the CC50 is > 300 µM.

On to `O=C(Nc1ccc(S(=O)(=O)N2CCCC2)cc1)c1cccs1`, for which the EC50 was > 75 µM (inactive) and the CC50 is > 300 µM.

In the case of `Cn1nc(C(F)(F)F)cc1COc1ccc(S(=O)(=O)N2CCCC2)cc1`, the EC50 was > 75 µM (inactive) and the CC50 is > 300 µM.

Turning to `O=C(Nc1ccc(S(=O)(=O)N2CCCC2)cc1)c1ccccc1C(F)(F)F`, the EC50 is > 75 µM (inactive) and the cytotoxic concentration (CC50) is > 300 µM.

As to `Cn1nc(C(F)(F)F)cc1C(=O)Cc1ccc(S(=O)(=O)N2CCCC2)cc1`, the EC50 was 15.5 µM (inactive) and the CC50 is > 300 µM.

Regarding `Cn1nc(C(F)(F)F)cc1C(=O)Nc1ccc(S(=O)(=O)N2CCCC2)cc1O`, the EC50 was > 75 µM (inactive) and the CC50 came to 288 µM.

For `O=C(Nc1ccc(S(=O)(=O)N2CCCC2)cc1)c1ccc([N+](=O)[O-])cc1Cl`, the EC50 was > 75 µM (inactive) and the CC50 is > 300 µM.

`O=C(Nc1ccc(S(=O)(=O)N2CCCC2)cc1)c1ccco1`: the EC50 is > 75 µM (inactive) and the CC50 was > 300 µM.

As for `Cn1nc(C(F)(F)F)cc1C(=O)Nc1ccc(S(=O)(=O)N2CCNCC2)cc1`, the EC50 was 28 µM (inactive) and the CC50 came out at 126 µM.

Regarding `Cc1cc(CNc2ccc(S(=O)(=O)N3CCCC3)cc2)n(C)n1`, the EC50 is > 75 µM (inactive) and the CC50 is > 300 µM.

In the case of `O=C(Nc1ccc(S(=O)(=O)N2CCCC2)cc1)c1ccc(C(F)(F)F)cc1`, the EC50 was 48 µM (inactive) and the CC50 was > 300 µM.

`Nc1ccc(C(=O)Nc2ccc(S(=O)(=O)N3CCCC3)cc2)c(Cl)c1`: the EC50 is > 75 µM (inactive) and the CC50 was > 300 µM.

As for `O=C(Nc1ccc(S(=O)(=O)N2CCCC2)cc1)c1cc(C(F)(F)F)ccc1F`, the EC50 was > 75 µM (inactive) and the CC50 is 76 µM.

On to `COc1ccc(Br)c(C(=O)Nc2ccc(S(=O)(=O)N3CCCC3)cc2)c1`, for which the EC50 was > 75 µM (inactive) and the CC50 is > 300 µM.

`Cn1nc(C(F)(F)F)cc1C(=O)Nc1ccc(S(=O)(=O)N2CCC[C@H]2C(=O)OC(=O)c2ccccc2)cc1`: the EC50 is 14 µM (inactive) and the 50% cytotoxic concentration (CC50) is 100 µM.

With `Cn1nc(C(C)(C)C)cc1C(=O)Nc1ccc(S(=O)(=O)N2CCCC2)cc1`, the EC50 is 25 µM (inactive) and the CC50 stood at 140 µM.

For the compound `O=C(Nc1ccc(S(=O)(=O)N2CCCC2)cc1)c1nc2ccccc2s1`, the EC50 was > 75 µM (inactive) and the half-maximal cytotoxic concentration (CC50) was > 300 µM.

Turning to `Cn1nc(C(F)(F)F)cc1C(=O)Nc1ccc(S(=O)(=O)N2CCC[C@H]2C(=O)O)cc1`, the EC50 is 23 µM (inactive) and the CC50 is > 300 µM.

Turning to `O=C(Nc1ccc(S(=O)(=O)N2CCCC2)cc1)c1cc(C(F)(F)F)nn1Cc1ccccc1`, the EC50 was > 75 µM (inactive) and the CC50 stood at 37 µM.

For the compound `Cn1nc(C(F)(F)F)cc1C(=O)Nc1ccc(S(=O)(=O)N2CCCCC2C(=O)O)cc1` (stereo not drawn), the EC50 was > 75 µM (inactive) and the CC50 is > 300 µM.

As to `O=C(Nc1ccc(S(=O)(=O)N2CCCC2)cc1)c1ccc(C(F)(F)F)cc1[N+](=O)[O-]`, the EC50 was > 75 µM (inactive) and the CC50 is > 300 µM.

Regarding `Cn1nc(C(F)(F)F)cc1C(=O)Nc1ccc(S(=O)(=O)N2CCCC2)cc1N`, the EC50 was > 75 µM (inactive) and the half-maximal cytotoxic concentration (CC50) is > 300 µM.

With `Cn1nc(C(F)(F)F)cc1C(=O)Nc1ccc(S(=O)(=O)N2CCCCC2)cc1`, the EC50 is < 2.3 µM and the CC50 is > 300 µM.

For the compound `Cn1nc(C(F)(F)F)cc1C(=O)Nc1ccc(S(=O)(=O)N2CCOCC2)cc1`, the EC50 was 43 µM (inactive) and the CC50 was > 300 µM.

Turning to `O=C(Nc1ccc(S(=O)(=O)N2CCCC2)cc1)c1nccn1-c1ccccc1C(F)(F)F`, the EC50 was 65 µM (inactive) and the CC50 is > 300 µM.

Turning to `Cc1cc(C(=O)Nc2ccc(S(=O)(=O)N3CCCC3)cc2)n(C)n1`, the EC50 was > 75 µM (inactive) and the cytotoxic concentration (CC50) is > 300 µM.

Take `Cn1nc(C(F)(F)F)cc1C(O)Cc1ccc(S(=O)(=O)N2CCCC2)cc1` (stereo not drawn): the EC50 is 41 µM (inactive) and the CC50 was > 300 µM.
